Patent publication US20120189579A1 (priority 2009, published 2012)

How the values were obtained:
[1] = biological target: T1, HCV NS5BΔ21/Gal4-DBD fusion protein (Hepatitis C virus genotype 1b, UniProt Q9WMX2); assay: 3D-SCREEN assay (NS5B reporter gene assay in Huh-7 cells); assay type: cell-based, HCV genotype 1b
T1 construct: The protein was expressed with a 21 amino acid C-terminal deletion to remove transmembrane domain; expressed in transfected cells; host or cells: Huh-7 (transient transfection)
Protocol: Human Hepatoma Huh-7 cell line was maintained in DMEM/HAMF-12 supplemented with 10% SVF, 4 mM glutamine, […] Na pyruvate, 1% penistreptomycine. HCV replicon containing Huh-7 cell lines Huh-9.13 and Luc Neo ET (Reblikon) were maintained in DMEM supplemented with 10% SVF, 2 mM glutamine, and 1×NEAA, 100 U/ml penicillin, and 100 μg/ml streptomycine. Replicon cells were maintained in medium supplemented with 1 mg/ml G418 for replicon Huh-9.13 and 0.5 mg/ml for Luc Neo et replicon unless indicated otherwise. Huh-7 and HCV replicon cell lines were maintained at 37° C. and 5% CO2 in a humidified atmosphere. Cells were dissociated at sub confluence with trypsin EDTA 1×.
cDNA encoding HCV NS5B genotype 1b, was cloned in frame with Gal4-DNA Binding Domain. The protein was expressed with a 21 amino acid C-terminal deletion to remove transmembrane domain. Expression of NS5BΔ21/Gal4 DBD fusion protein was under control of SV40 early promoter. 3D-Sensor peptide was cloned in frame with VP16 activation domain. Expression of 3D-Sensor/VP16 AD fusion protein was under control of CMV promoter. Expression of the firefly luciferase reporter gene was inducible by the [Target protein/conformation sensitive peptide/VP16AD] complex.
It is a single-target, cell based assay. Briefly, expression of a reporter gene depends on the interaction of a short peptide, thereafter named 3D-Sensor, and native conformation of the target protein. Whenever the conformation of the target protein is modified, interaction between 3D-sensor and target protein is disrupted and reporter gene is not expressed anymore. Conformation modifiers are identified by loss of expression of reporter gene. NS5B 3D-Screen platform was generated in Huh-7 cell lines by transient transfection of three expression vectors encoding respectively • (i) HCV NS5BΔ21/Gal4-DBD fusion protein • (ii) the 3D-sensor peptide 14/VP16 fusion protein • (iii) the firefly luciferase reporter gene
Huh-7 cells were dissociated the day before transfection and seeded in T175 flasks at a density of 10^7 cells in 30 ml culture medium. Equimolar ratios of vectors were transfected in cell according to optimized jetPEI transfection protocol (PolyPlus Transfection, Illkirch, France) and 10 μg total DNA/10^6 cells. Transfection was performed for 2 hours at 37° C. and 5% CO2 in a humidified atmosphere. After two hours cells were dissociated and seeded in 96 wells plates at a density of 25,000 cells per well and 90 μl culture medium. 10 μl of compounds to be tested were added 2 hours after seeding. Final concentration of DMSO was 1%. Cells were incubated in the presence of compounds for 24 hours after which expression of firefly luciferase reporter gene was quantified. Briefly, culture medium was removed and cells were lysed by addition of 100 μl of lysis buffer containing 125 mM Tris Phosphate ph 7.8, 10 mM EDTA, 5 mM DTT, 50% glycerol and 5% Triton. Plates were vortexed 10 min at 1300 rpm. Cell lysat was transferred in OpaqueWhite Assay 96 well Flat Bottom plates. 100 μl of luciferin solution 1× were added to each well. Luciferin solution contained 40 mM Tris Phosphate ph 7.8, 0.2 mM EDTA, 67 mM DTT, 2.14 mM MgCl2, 5.4 mM MgSO4, 4.7×10^−4 M luciferin, 5.3×10^−4 M ATP and 2.7×10^−4 M Acetyl co enzyme A. Luminescence was immediately measured with Berthold Microlumat Plus LB 96V luminometer with an integration of 0.5 sec. Inhibition was calculated using the formula: % inhibition=(1−(read/average max))*100. Average max=signal in absence of compound

melting point | SMILES | EC50 [1]
281 °C | COc1ccc(C(=O)C2=C(O)C(=O)N(c3nnc(C)s3)C2c2ccc(C(=O)O)cc2)cc1 (stereo not drawn) | –
185 °C | COc1ccc(C(=O)C2=C(O)C(=O)N(c3nnc(C)s3)C2c2ccc(C#N)cc2)cc1 (stereo not drawn) | –
– | CC(C)c1ccc(C2C(C(=O)c3ccc(C(C)(C)C)cc3)=C(O)C(=O)N2c2ncc(S(=O)(=O)c3ccc([N+](=O)[O-])cc3)s2)cc1 (stereo not drawn) [Example 9, 4-(4-tert-butyl-benzoyl)-3-hydroxy-5-(4-isopropyl-phenyl)-1-[5-(4-nitro-benzenesulfonyl)-thiazol-2-yl]-1,5-dihydro-pyrrol-2-one] | 4 µM
– | CC(C)c1ccc(C2C(C(=O)Cc3ccccc3)=C(O)C(=O)N2c2ncc(S(=O)(=O)c3ccc([N+](=O)[O-])cc3)s2)cc1 (stereo not drawn) [Example 11, 3-hydroxy-5-(4-isopropyl-phenyl)-1-[5-(4-nitro-benzenesulfonyl)-thiazol-2-yl]-4-phenylacetyl-1,5-dihydro-pyrrol-2-one] | 12 µM
– | CC(C)c1ccc(C2C(C(=O)c3ccc(OC(F)(F)F)cc3)=C(O)C(=O)N2c2ncc(S(=O)(=O)c3ccc([N+](=O)[O-])cc3)s2)cc1 (stereo not drawn) [Example 13, 3-hydroxy-5-(4-isopropyl-phenyl)-1-[5-(4-nitro-benzenesulfonyl)-thiazol-2-yl]-4-(4-trifluoromethoxy-benzoyl)-1,5-dihydro-pyrrol-2-one] | 2 µM
– | COc1ccc(C(=O)C2=C(O)C(=O)N(c3nnc(C4CCCCC4)s3)C2c2ccc(C(C)(C)C)cc2)cc1 (stereo not drawn) [Example 27] | 12 µM
– | COc1ccc(C(=O)C2=C(O)C(=O)N(c3nnc(-c4ccccc4)s3)C2c2ccc(C(C)(C)C)cc2)cc1 (stereo not drawn) [Example 30, 5-(4-tert-butyl-phenyl)-3-hydroxy-4-(4-methoxy-benzoyl)-1-(5-phenyl-[1,3,4]thiadiazol-2-yl)-1,5-dihydro-pyrrol-2-one] | 6 µM
– | CC(C)c1ccc(C2C(C(=O)c3ccc(Cl)cc3)=C(O)C(=O)N2c2ncc(S(=O)(=O)c3ccc([N+](=O)[O-])cc3)s2)cc1 (stereo not drawn) [Example 32] | 2 µM
– | CC(C)c1ccc(C2C(Cc3ccccc3)=C(O)C(=O)N2c2ncc(S(=O)(=O)c3ccc([N+](=O)[O-])cc3)s2)cc1 (stereo not drawn) [Example 36, 4-benzyl-3-hydroxy-5-(4-isopropyl-phenyl)-1-[5-(4-nitro-benzenesulfonyl)-thiazol-2-yl]-1,5-dihydro-pyrrol-2-one] | 5 µM
– | COc1ccc(C2C(C(=O)c3ccc(Cl)cc3)=C(O)C(=O)N2c2ncc(S(=O)(=O)c3ccc([N+](=O)[O-])cc3)s2)cc1 (stereo not drawn) [Example 52] | 6 µM
– | COc1ccc(C2C(C(=O)c3ccc(C)cc3)=C(O)C(=O)N2c2ncc(S(=O)(=O)c3ccc([N+](=O)[O-])cc3)s2)cc1 (stereo not drawn) [Example 53] | 6 µM
– | CC(C)(C)c1ccc(C2C(C(=O)c3nccs3)=C(O)C(=O)N2c2ncc(S(=O)(=O)c3ccc([N+](=O)[O-])cc3)s2)cc1 (stereo not drawn) [Example 56, 5-(4-tert-butyl-phenyl)-3-hydroxy-1-[5-(4-nitro-benzenesulfonyl)-thiazol-2-yl]-4-(thiazol-2-carbonyl)-1,5-dihydro-pyrrol-2-one] | < 10 µM
– | O=C(C1=C(O)C(=O)N(c2ncc(S(=O)(=O)c3ccc([N+](=O)[O-])cc3)s2)C1c1cccc(Br)c1)c1ccc(Cl)cc1 (stereo not drawn) [Example 57] | 4 µM
– | O=C(C1=C(O)C(=O)N(c2ncc(S(=O)(=O)c3ccc([N+](=O)[O-])cc3)s2)C1c1cccc(Cl)c1)c1ccc(Cl)cc1 (stereo not drawn) [Example 59] | 14 µM
– | Cc1ccc(C(=O)C2=C(O)C(=O)N(c3ncc(S(=O)(=O)c4ccc([N+](=O)[O-])cc4)s3)C2c2ccc(Cl)cc2)cc1 (stereo not drawn) [Example 60] | 13 µM
– | COC(=O)c1sc(N2C(=O)C(O)=C(C(=O)c3ccc(Cl)cc3)C2c2ccc(C(C)(C)C)cc2)nc1C (stereo not drawn) [Example 62] | 20 µM
– | Cc1ccc(C2C(C(=O)c3ccc(Cl)cc3)=C(O)C(=O)N2c2ncc(S(=O)(=O)c3ccc([N+](=O)[O-])cc3)s2)cc1 (stereo not drawn) [Example 66] | 14 µM
– | Cc1ccc(C(=O)C2=C(O)C(=O)N(c3ncc(S(=O)(=O)c4ccc([N+](=O)[O-])cc4)s3)C2c2ccc(C)cc2)cc1 (stereo not drawn) [Example 124] | 7 µM
